Measured values from PubChem BioAssay AID1421 (Emory University Molecular Libraries Screening Center, 2008).
Active and inactive are the calls of the source. No rule for the calls is given here.

Each compound was assayed against Prostaglandin E2 receptor EP2 subtype (Homo sapiens) (UniProt P43116) (assay: EP2 receptor modulators, dose response, cell-based, human EP2, PGE2 EC50 shift (AID 1421)). Details: EP2-expressing cells, PGE2 EC50 shift by compound.
Sequence of Prostaglandin E2 receptor EP2 subtype (Homo sapiens) (P43116 whole entry, looked up): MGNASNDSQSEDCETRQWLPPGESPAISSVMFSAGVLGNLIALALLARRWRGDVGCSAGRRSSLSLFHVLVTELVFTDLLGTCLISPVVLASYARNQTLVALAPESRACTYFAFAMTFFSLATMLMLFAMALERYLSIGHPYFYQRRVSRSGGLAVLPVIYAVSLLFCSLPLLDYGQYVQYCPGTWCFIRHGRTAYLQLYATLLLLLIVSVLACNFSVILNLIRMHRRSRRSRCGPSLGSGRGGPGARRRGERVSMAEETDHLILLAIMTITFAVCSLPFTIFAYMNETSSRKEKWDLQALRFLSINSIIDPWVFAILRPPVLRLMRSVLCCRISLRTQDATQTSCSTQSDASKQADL

SMILES | outcome
O=C1C2C3c4ccccc4C(c4ccccc43)[C@@H]2c2nc3ccccc3n21 (stereo not given in full) | active
CC1CCc2c(sc(N)c2C(=O)OC(C)C)C1 (stereo not given) | active
CC(C)OC(=O)c1c(NC(=O)c2cccs2)sc2c1CCCC2 | active
O=c1[nH]c2ccc(Cl)cc2c(-c2ccccc2)c1N1CCOCC1 | active
O=C(Nc1ccccc1N1CCN(c2ccccc2)CC1)C12CC3CC(CC(C3)C1)C2 | active
Cc1nn2c(c1-c1ccccc1)N=C(c1ccco1)CC2c1ccccc1 (stereo not given) | active
CCOC(=O)c1c(NC(=O)c2cccs2)sc(C)c1CC | active
C/C(=N\NC(=O)NC1CCCCC1)C1CCCCC1 | active
CC1CCN(c2ccccc2NC(=O)c2ccc(C#N)cc2F)CC1 | active
COc1ccc(-c2cc(C(F)(F)F)nc(N3CCCCC3)n2)cc1OC | active
Cc1cc(C#N)c(SCC(N)=O)nc1-c1ccc(F)cc1 | active
Cc1nc2c(c(C)nn2-c2ccccc2)c(C)c1Cl | active
CC(=O)N(Cc1cccs1)Cc1cc2ccc(C)c(C)c2nc1Cl | active
OC(Cc1ccccc1)(Cc1ccccc1)c1ccccc1 | active
CCCCCc1ccc(-c2ccc(=O)[nH]n2)cc1 | active
CC(C)OC(=O)CSc1nc(Cc2ccccc2)nc2ccccc12 | active
CCSc1cc(N2CCOCC2)nc(-c2ccc(Cl)cc2)n1 | active

Same assay, conditions: EP2-expressing cells, PGE2 EC50 shift by compound; measured here: PGE2 EC50 at 6.7 uM compound

SMILES | PGE2 EC50 with compound
O=C1C2C3c4ccccc4C(c4ccccc43)[C@@H]2c2nc3ccccc3n21 (stereo not given in full) | 0.7 nM
CC1CCN(c2nc3c(c(=O)[nH]c(=O)n3C)n2CCCc2ccccc2)CC1 | 1.05 nM
Cc1cc(SCC(=O)c2ccccc2)nc2ccccc12 | 1.09 nM
S=c1[nH]nc(-c2ccco2)n1/N=C/c1ccc(Cl)cc1Cl | 1.06 nM
C=CCSc1nc2ccccc2c(=O)n1Cc1ccccc1 | 0.72 nM
CCOC(=O)c1c(NC(=O)COC(=O)Cn2c(C)nc3ccccc32)sc2c1CCCC2 | 1.02 nM
CC1CCc2c(sc(N)c2C(=O)OC(C)C)C1 (stereo not given) | 0.91 nM
C=CCC(=O)OCCCCCCOc1ccc(C(=O)O)cc1 | 0.58 nM
CC(C)(C)c1nc2ccccc2c(=O)n1N1C(=O)c2ccccc2C1=O | 0.82 nM
N#CCSc1nc2sc3c(c2c(=O)n1C1CCCCC1)CCCC3 | 0.76 nM
COc1cc(OC)cc(-c2nc(N)n[nH]2)c1 | 0.8 nM
CCC1(CC)Cc2ccccc2-c2nc(NCCO)[nH]c(=O)c21 | 1.25 nM
COC(=O)c1sc2nc(-c3ccccc3)c3c(c2c1N)CCCC3 | 0.33 nM
Cc1ccc(N=N/C(=C\O)C(=O)c2ccc(Cl)cc2)cc1 | 0.87 nM
Cc1cccc(C)c1NC(=O)CSc1nc(COc2ccccc2)nc2ccccc12 | 0.82 nM
CCOC(=O)c1c(NC(=O)CSc2nnc(N)s2)sc(C)c1-c1ccc(C)cc1 | 0.48 nM
CC(C)OC(=O)c1c(NC(=O)c2cccs2)sc2c1CCCC2 | 1.01 nM
COc1cc2ccccc2cc1C(=O)NC(=S)Nc1cccc(C(=O)O)c1 | 0.75 nM
c1ccc(-c2noc(-c3cccc4ccccc34)n2)cc1 | 1.18 nM
Cn1c(=O)[nH]c(=O)c2c1nc(N1CCCCCC1)n2Cc1cccc2ccccc12 | 2.64 nM
Cc1cccnc1N(C(=O)Nc1ccccc1)C1=NCC(C)(C)S1 | 0.57 nM
O=c1[nH]c2ccc(Cl)cc2c(-c2ccccc2)c1N1CCOCC1 | 1.13 nM

SMILES | PGE2 EC50 with compound
CCOC(=O)c1c(-c2ccc(C)cc2)csc1NC(=O)CCN1CC(C)OC(C)C1 (stereo not given) | 0.68 nM
CCCCCCC/C=C\CCCCCCCCC(=O)O | 1.56 nM
O=C(Nc1ccccc1N1CCN(c2ccccc2)CC1)C12CC3CC(CC(C3)C1)C2 | 2.52 nM
Cc1cccc(Oc2nc(-c3ccccc3)cc(C)c2S(C)(=O)=O)c1C | 2.56 nM
Clc1ccccc1C1NCc2ccccc2-n2cccc21 (stereo not given) | 0.34 nM
CCOP(=O)(OCC)c1nc(-c2ccc(Cl)cc2Cl)oc1N1CCCCC1 | 1.42 nM
COCCn1c(SCC(=O)NCCc2ccccc2)nnc1-c1ccco1 | 1.4 nM
Cc1nn2c(c1-c1ccccc1)N=C(c1ccco1)CC2c1ccccc1 (stereo not given) | 0.8 nM
CCOC(=O)c1c(NC(=O)c2cccs2)sc(C)c1CC | 1.51 nM
COc1ccc(C(=O)O)cc1NC(=S)NC(=O)c1ccc(-c2ccc(Cl)cc2)o1 | 0.36 nM
C/C(=N\NC(=O)NC1CCCCC1)C1CCCCC1 | 1.79 nM
O=S(=O)(C=C(c1ccccc1)c1ccccc1)c1ccccc1 | 2.7 nM
COc1ccc(C)c(Cn2c(-c3nonc3N)nc3ccccc32)c1 | 0.86 nM
O=C(O)/C=C/C(O)c1ccc(Cl)cc1 (stereo not given) | 0.97 nM
Nc1c(C(=O)Nc2ccccc2F)sc2nc(Cc3ccccc3)cc(C(F)(F)F)c12 | 0.62 nM
CCOC(=O)CSc1ncnc2c1sc1nc(N3CCOCC3)c3c(c12)CCCC3 | 0.32 nM
Cc1cc(O)ccc1C1(c2ccc(O)cc2C)OC(=O)c2ccccc21 | 0.55 nM
COc1ccc(N=N/C(=C\O)C(=O)c2cccs2)cc1 | 1.42 nM
CC1CCN(c2ccccc2NC(=O)c2ccc(C#N)cc2F)CC1 | 0.93 nM
S=c1[nH]nc(CSc2nc3ccccc3s2)n1Cc1ccccc1 | 0.72 nM
O=C(c1ccco1)N(CC1CCCO1)c1nc(-c2ccccc2)cs1 (stereo not given) | 0.61 nM
